Measured values: ChEMBL document CHEMBL5370543, “Discovery of 6-aryl-2-(3,4,5-trimethoxyphenyl)thiazole[3,2-b][1,2,4]triazoles as potent tubulin polymerization inhibitors” (Eur J Med Chem, 2023)
Values belong to the compound of their own block, whether it stands above or below them.

Columns and labels:
SGC-7901 [1] = test: Antiproliferative activity against human SGC-7901 cells assessed as cell growth inhibition incubated for 72 hrs by MTT assay; format: functional, cell-based; conditions: SGC-7901, 72 h
MCF7 = test: Antiproliferative activity against human MCF7 cells assessed as cell growth inhibition incubated for 72 hrs by MTT assay; format: functional, cell-based; conditions: MCF7, 72 h
HT-1080 = test: Antiproliferative activity against human HT-1080 cells assessed as cell growth inhibition incubated for 72 hrs by MTT assay; format: functional, cell-based; conditions: HT-1080, 72 h
SGC-7901 [2] = test: Induction of cell cycle arrest in human SGC-7901 cells assessed as accumulation at sub-G1 phase at 2 times IC50 incubated for 72 hrs by PI/RNase staining based flow cytometry (reference value: 6 %); format: functional
[3] = Selectivity index, ratio of IC50 for HUVEC cells to IC50 for human SGC-7901 cells; format: functional
SGC-7901 [4] = test: Induction of cell cycle arrest in human SGC-7901 cells assessed as accumulation at G2/M phase at 2 times IC50 incubated for 12 hrs by PI/RNase staining based flow cytometry (reference value: 9 %); format: functional
SGC-7901 [5] = test: Induction of cell cycle arrest in human SGC-7901 cells assessed as accumulation at G2/M phase at 2 times IC50 incubated for 48 hrs by PI/RNase staining based flow cytometry (reference value: 9 %); format: functional
SGC-7901 [6] = test: Induction of cell cycle arrest in human SGC-7901 cells assessed as accumulation at G0/G1 phase at 2 times IC50 incubated for 24 hrs by PI/RNase staining based flow cytometry (reference value: 41 %); format: functional
SGC-7901 [7] = test: Induction of cell cycle arrest in human SGC-7901 cells assessed as accumulation at G2/M phase at 2 times IC50 incubated for 24 hrs by PI/RNase staining based flow cytometry (reference value: 9 %); format: functional
SGC-7901 [8] = test: Induction of cell cycle arrest in human SGC-7901 cells assessed as accumulation at G0/G1 phase at 2 times IC50 incubated for 12 hrs by PI/RNase staining based flow cytometry (reference value: 41 %); format: functional
SGC-7901 [9] = test: Induction of cell cycle arrest in human SGC-7901 cells assessed as accumulation at G0/G1 phase at 2 times IC50 incubated for 72 hrs by PI/RNase staining based flow cytometry (reference value: 41 %); format: functional
SGC-7901 [10] = test: Induction of cell cycle arrest in human SGC-7901 cells assessed as accumulation at sub-G1 phase at 2 times IC50 incubated for 12 hrs by PI/RNase staining based flow cytometry (reference value: 6 %); format: functional
SGC-7901 [11] = test: Induction of cell cycle arrest in human SGC-7901 cells assessed as accumulation at sub-G1 phase at 2 times IC50 incubated for 24 hrs by PI/RNase staining based flow cytometry (reference value: 6 %); format: functional
SGC-7901 [12] = test: Induction of cell cycle arrest in human SGC-7901 cells assessed as accumulation at G0/G1 phase at 2 times IC50 incubated for 48 hrs by PI/RNase staining based flow cytometry (reference value: 41 %); format: functional
SGC-7901 [13] = test: Induction of cell cycle arrest in human SGC-7901 cells assessed as accumulation at S phase at 2 times IC50 incubated for 12 hrs by PI/RNase staining based flow cytometry (reference value: 44 %); format: functional
SGC-7901 [14] = test: Induction of cell cycle arrest in human SGC-7901 cells assessed as accumulation at G0/G1 phase at 2 times IC50 incubated for 6 hrs by PI/RNase staining based flow cytometry (reference value: 41 %); format: functional
SGC-7901 [15] = test: Induction of cell cycle arrest in human SGC-7901 cells assessed as accumulation at sub-G1 phase at 2 times IC50 incubated for 48 hrs by PI/RNase staining based flow cytometry (reference value: 6 %); format: functional
SGC-7901 [16] = test: Induction of cell cycle arrest in human SGC-7901 cells assessed as accumulation at G2/M phase at 2 times IC50 incubated for 72 hrs by PI/RNase staining based flow cytometry (reference value: 9 %); format: functional
SGC-7901 [17] = test: Induction of cell cycle arrest in human SGC-7901 cells assessed as accumulation at S phase at 2 times IC50 incubated for 72 hrs by PI/RNase staining based flow cytometry (reference value: 44 %); format: functional
SGC-7901 [18] = test: Induction of cell cycle arrest in human SGC-7901 cells assessed as accumulation at S phase at 2 times IC50 incubated for 48 hrs by PI/RNase staining based flow cytometry (reference value: 44 %); format: functional
[19] = Cytotoxicity against HUVEC cells assessed as cell growth inhibition incubated for 72 hrs by MTT assay; format: toxicity, cell-based; conditions: human
SGC-7901 [20] = test: Induction of cell cycle arrest in human SGC-7901 cells assessed as accumulation at S phase at 2 times IC50 incubated for 6 hrs by PI/RNase staining based flow cytometry (reference value: 44 %); format: functional
SGC-7901 [21] = test: Induction of cell cycle arrest in human SGC-7901 cells assessed as accumulation at sub-G1 phase at 2 times IC50 incubated for 6 hrs by PI/RNase staining based flow cytometry (reference value: 6 %); format: functional
SGC-7901 [22] = test: Induction of cell cycle arrest in human SGC-7901 cells assessed as accumulation at S phase at 2 times IC50 incubated for 24 hrs by PI/RNase staining based flow cytometry (reference value: 44 %); format: functional
SGC-7901 [23] = test: Induction of cell cycle arrest in human SGC-7901 cells assessed as accumulation at G2/M phase at 2 times IC50 incubated for 6 hrs by PI/RNase staining based flow cytometry (reference value: 9 %); format: functional
4T1 = test: Antitumor activity against mouse 4T1 cells allografted in Balb/c mouse assessed as tumor weight at 5 mg/kg, iv administered every other day measured after 12 days (reference value: 448 mg); format: functional; conditions: time 12 day
Tubulin (Homo sapiens) = Tubulin (Homo sapiens) (UniProt P68371+Q9H4B7+P0DPH7+P68366+Q13509+Q71U36+P04350+Q3ZCM7+P07437+P68363+Q9BQE3+Q6PEY2+Q13885+Q9BVA1+Q9BUF5); test: Binding affinity to tubulin (unknown origin) at colchicine binding site assessed as tubulin-colchicine complex competition rate at 1.25 uM preincubated for 45 mins followed by colchicine addition by fluorescence based assay relative to control; format: protein-complex assay

SMILES: COc1ccc(-c2csc3nc(-c4cc(OC)c(OC)c(OC)c4)nn23)cc1
- IC50 (SGC-7901 [1]): 6.19 µM
- IC50 (MCF7): 8.28 µM
- IC50 (HT-1080): 3.76 µM

SMILES: COc1cc(-c2nc3scc(-c4ccccc4Br)n3n2)cc(OC)c1OC
- IC50 (SGC-7901 [1]): 6.41 µM
- IC50 (MCF7): 5.26 µM
- IC50 (HT-1080): 1.36 µM

SMILES: COc1ccc(-c2csc3nc(-c4cc(OC)c(OC)c(OC)c4)nn23)cc1F
- IC50 (SGC-7901 [1]): 10 µM
- IC50 (MCF7): 5.08 µM
- IC50 (HT-1080): 3.79 µM

SMILES: COc1cc(-c2nc3scc(-c4ccccc4)n3n2)cc(OC)c1OC
- IC50 (SGC-7901 [1]): 0.88 µM
- IC50 (MCF7): 4.38 µM
- IC50 (HT-1080): 3.64 µM

SMILES: COc1cc(-c2nc3scc(-c4ccc(Cl)cc4)n3n2)cc(OC)c1OC
- IC50 (SGC-7901 [1]): 2.19 µM
- IC50 (MCF7): 4.64 µM
- IC50 (HT-1080): 3.75 µM

SMILES: COc1cc(-c2nc3scc(-c4cc(F)cc(F)c4)n3n2)cc(OC)c1OC
- IC50 (SGC-7901 [1]): 0.61 µM
- IC50 (MCF7): 3.86 µM
- IC50 (HT-1080): 2.31 µM

SMILES: COc1ccccc1-c1csc2nc(-c3cc(OC)c(OC)c(OC)c3)nn12
- IC50 (SGC-7901 [1]): 7.25 µM
- IC50 (MCF7): 4.99 µM
- IC50 (HT-1080): 7.55 µM

SMILES: COc1cc2c(c(OC)c1OC)-c1ccc(OC)c(=O)cc1[C@@H](NC(C)=O)CC2 [COLCHICINE]
- Activity (SGC-7901 [2]): 41%
- IC50 (SGC-7901 [1]): 0.11 µM
- Ratio IC50 [3]: 1.91
- Activity (SGC-7901 [4]): 52%
- Activity (SGC-7901 [5]): 72%
- Activity (SGC-7901 [6]): 10%
- Activity (SGC-7901 [7]): 64%
- Activity (SGC-7901 [8]): 20%
- Activity (SGC-7901 [9]): 1%
- Activity (SGC-7901 [10]): 12%
- Activity (SGC-7901 [11]): 14%
- Activity (SGC-7901 [12]): 0%
- Activity (SGC-7901 [13]): 16%
- Activity (SGC-7901 [14]): 33%
- Activity (SGC-7901 [15]): 16%
- Activity (SGC-7901 [16]): 50%
- Activity (SGC-7901 [17]): 8%
- Activity (SGC-7901 [18]): 12%
- IC50 at 72 h [19]: 0.21 µM
- Activity (SGC-7901 [20]): 42%
- Activity (SGC-7901 [21]): 9%
- Activity (SGC-7901 [22]): 12%
- Activity (SGC-7901 [23]): 16%
- IC50 (MCF7): 0.068 µM
- IC50 (HT-1080): 0.073 µM

SMILES: COc1cc(-c2nc3scc(-c4ccc(F)c(F)c4)n3n2)cc(OC)c1OC
- IC50 (SGC-7901 [1]): 8.11 µM
- IC50 (MCF7): 4.97 µM
- IC50 (HT-1080): 2.85 µM

SMILES: COc1ccc(-c2csc3nc(-c4cc(OC)c(OC)c(OC)c4)nn23)cc1OC
- IC50 (SGC-7901 [1]): 3.69 µM
- IC50 (MCF7): 5.88 µM
- IC50 (HT-1080): 11.7 µM

SMILES: COc1cc(-c2nc3scc(-c4ccc(Br)cc4)n3n2)cc(OC)c1OC
- IC50 (SGC-7901 [1]): 5.82 µM
- IC50 (MCF7): 6.88 µM
- IC50 (HT-1080): 7.49 µM

SMILES: COc1cc(-c2nc3scc(-c4cc(C)cc(C)c4)n3n2)cc(OC)c1OC
- IC50 (SGC-7901 [1]): 0.55 µM
- IC50 (MCF7): 5.41 µM
- IC50 (HT-1080): 1.42 µM

SMILES: Nc1ccn([C@@H]2O[C@H](CO)[C@@H](O)C2(F)F)c(=O)n1 [GEMCITABINE]
- Activity (4T1): 17.02 mg

SMILES: COc1cc(-c2nc3scc(-c4cccc(Cl)c4)n3n2)cc(OC)c1OC
- IC50 (SGC-7901 [1]): 0.43 µM
- IC50 (MCF7): 3.09 µM
- IC50 (HT-1080): 1.53 µM

SMILES: COc1cc(-c2nc3scc(-c4ccc([N+](=O)[O-])cc4)n3n2)cc(OC)c1OC
- IC50 (SGC-7901 [1]): 3.03 µM
- IC50 (MCF7): > 30 µM
- IC50 (HT-1080): 4.3 µM

SMILES: COc1cc(-c2nc3scc(-c4ccccc4F)n3n2)cc(OC)c1OC
- IC50 (SGC-7901 [1]): 7.3 µM
- IC50 (MCF7): 5.89 µM
- IC50 (HT-1080): 1.65 µM

Results, then the compound that gave them:

- IC50 (SGC-7901 [1]): 4.09 µM
- IC50 (MCF7): 12.2 µM
- IC50 (HT-1080): 2.91 µM
SMILES: COc1cc(-c2nc3scc(-c4ccc(C(F)(F)F)cc4)n3n2)cc(OC)c1OC

- IC50 (SGC-7901 [1]): 0.94 µM
- IC50 (MCF7): 4.94 µM
- IC50 (HT-1080): 2.18 µM
SMILES: COc1cccc(-c2csc3nc(-c4cc(OC)c(OC)c(OC)c4)nn23)c1

- IC50 (SGC-7901 [1]): 0.75 µM
- IC50 (MCF7): 3.13 µM
- IC50 (HT-1080): 1.5 µM
SMILES: COc1cc(-c2nc3scc(-c4cccc([N+](=O)[O-])c4)n3n2)cc(OC)c1OC

- IC50 (SGC-7901 [1]): 3.66 µM
- IC50 (MCF7): 2.58 µM
- IC50 (HT-1080): 1.51 µM
SMILES: COc1cc(-c2nc3scc(-c4ccc(C)cc4)n3n2)cc(OC)c1OC

- IC50 (SGC-7901 [1]): 0.78 µM
- IC50 (MCF7): 4.86 µM
- IC50 (HT-1080): 2.74 µM
SMILES: COc1cc(-c2nc3scc(-c4cccc(F)c4)n3n2)cc(OC)c1OC

- IC50 (SGC-7901 [1]): 0.82 µM
- IC50 (MCF7): 3.61 µM
- IC50 (HT-1080): 2.13 µM
SMILES: COc1cc(-c2nc3scc(-c4cccc(N)c4)n3n2)cc(OC)c1OC

- IC50 (SGC-7901 [1]): 0.62 µM
- IC50 (MCF7): 3.46 µM
- IC50 (HT-1080): 1.71 µM
SMILES: COc1cc(-c2nc3scc(-c4cccc(Br)c4)n3n2)cc(OC)c1OC

- Activity (Tubulin (Homo sapiens)): 23.8%
SMILES: COc1ccc(/C=C\c2cc(OC)c(OC)c(OC)c2)cc1O

- IC50 (SGC-7901 [1]): 4.47 µM
- IC50 (MCF7): 7.48 µM
- IC50 (HT-1080): 3.38 µM
SMILES: COc1cc(-c2nc3scc(-c4ccccc4Cl)n3n2)cc(OC)c1OC

- IC50 (SGC-7901 [1]): > 30 µM
- IC50 (MCF7): > 30 µM
- IC50 (HT-1080): > 30 µM
SMILES: COc1cc(-c2nc3scc(-c4ccc(F)cc4)n3n2)cc(OC)c1OC
